# ChEMBL document CHEMBL3243930 (J Med Chem, 1979)
# Key:
# [1] = Inhibition of pigeon liver dihydrofolate reductase; design: species or system Columba livia; settings: read-out: I50
# KB [2] = test: Cytotoxicity against human KB cells; type: functional; settings: read-out: ED50 (the source's name)
# L1210 [3] = test: Antitumor activity against mouse L1210 cells […] in mouse assessed as increase in life span at 200 mg/kg, ip qd administered on day 2 and day 6 relative to control; type: functional; settings: route intraperitoneal
# [4] = Dissociation constant, pKa of the compound; type: physicochemical
# Columba livia = test: Potency index, ratio of I50 for MTX to I50 for compound against pigeon liver dihydrofolate reductase
# KB [5] = test: Potency index, ratio of ED50 for MTX to ED50 for compound against human KB cells; type: functional
# L1210 [6] = test: Antitumor activity against mouse L1210 cells […] in mouse assessed as increase in life span at 500 mg/kg, ip qd from day 1 to day 9 relative to control; type: functional; settings: route intraperitoneal
# L1210 [7] = test: Antitumor activity against mouse L1210 cells […] in mouse assessed as increase in life span at 1.3 mg/kg, ip qd from day 1 to day 9 relative to control; type: functional; settings: route intraperitoneal
# [8] = Cytotoxicity against human Hep2 cells; type: functional; settings: HEp-2, read-out: ED50 (the source's name)
# L1210 [9] = test: Antitumor activity against mouse L1210 cells […] in mouse assessed as increase in life span at 100 mg/kg, ip qd from day 1 to day 9 relative to control; type: functional; settings: route intraperitoneal
# HEp-2 = test: Potency index, ratio of ED50 for MTX to ED50 for compound against human Hep2 cells; type: functional
# L1210 [10] = test: Antitumor activity against mouse L1210 cells […] in mouse assessed as increase in life span at 0.44 mg/kg, ip qd from day 1 to day 9 relative to control; type: functional; settings: route intraperitoneal
# L1210 [11] = test: Antitumor activity against mouse L1210 cells […] in mouse assessed as increase in life span at 200 mg/kg, ip qd from day 1 to day 9 relative to control; type: functional; settings: route intraperitoneal
# L1210 [12] = test: Antitumor activity against mouse L1210 cells […] in mouse assessed as increase in life span at 10 mg/kg, ip qd from day 1 to day 9 relative to control; type: functional; settings: route intraperitoneal
# L1210 [13] = test: Antitumor activity against mouse L1210 cells […] in mouse assessed as increase in life span at 20 mg/kg, ip qd from day 1 to day 9 relative to control; type: functional; settings: route intraperitoneal
# L1210 [14] = test: Antitumor activity against mouse L1210 cells […] in mouse assessed as increase in life span at 50 mg/kg, ip qd from day 1 to day 9 relative to control; type: functional; settings: route intraperitoneal
# L1210 [15] = test: Antitumor activity against mouse L1210 cells […] in mouse assessed as increase in life span at 1.5 mg/kg, ip qd from day 1 to day 9 relative to control; type: functional; settings: route intraperitoneal
# L1210 [16] = test: Antitumor activity against mouse L1210 cells […] in mouse assessed as increase in life span at 25 mg/kg, ip qd from day 1 to day 9 relative to control; type: functional; settings: route intraperitoneal
# L1210 [17] = test: Antitumor activity against mouse L1210 cells […] in mouse assessed as increase in life span at 0.67 mg/kg, ip qd from day 1 to day 9 relative to control; type: functional; settings: route intraperitoneal
SMILES,IC50 [1] [nM],EC50 (KB [2]) [µg/mL],Ratio (Columba livia),Ratio ED50 (KB [5]),other results
CN(Cc1cnc2nc(N)c(Br)c(N)c2n1)c1ccc(C(=O)N[C@@H](CCC(=O)O)C(=O)O)cc1,2500,76,190,19000,ILS at 200 mg/kg (L1210 [3]): 1%; pKa [4]: 5.1
Nc1nc(N)c2nc(CNc3ccc(CCC(=O)N[C@@H](CCC(=O)O)C(=O)O)cc3)cnc2n1,460,37,33,9300,ILS at 500 mg/kg (L1210 [6]): 1%
Nc1nc(N)c2nc(CNc3ccc(C(=O)NCC(=O)O)cc3)cnc2n1,1100,88,42,22000,–
CN(Cc1cnc2nc(N)c([N+](=O)[O-])c(N)c2n1)c1ccc(C(=O)N[C@@H](CCC(=O)O)C(=O)O)cc1,38000,> 100,1400,–,ILS at 200 mg/kg (L1210 [3]): 1%; pKa [4]: 4.3
Nc1nc(N)c2nc(COc3ccc(C(=O)N[C@@H](CCC(=O)O)C(=O)O)cc3)cnc2n1,510,3.5,20,875,ILS at 1.3 mg/kg (L1210 [7]): 32%
CN(Cc1cnc2nc(N)cc(N)c2n1)c1ccc(C(=O)N[C@@H](CCC(=O)O)C(=O)O)cc1,63,–,4.8,–,EC50 [8]: 0.05 µg/mL; ILS at 100 mg/kg (L1210 [9]): 64%; Ratio ED50 (HEp-2): 13
Nc1nc(N)c2nc(CNc3ccc(C(=O)N[C@@H](CCC(=O)O)C(=O)O)nc3)cnc2n1,30,0.006,1.2,1.5,ILS at 0.44 mg/kg (L1210 [10]): 69%
Nc1nc(N)c2nc(CN(Cc3ccccc3)c3ccc(C(=O)N[C@@H](CCC(=O)O)C(=O)O)cc3)cnc2n1,14000,> 100,310,–,–
Nc1nc(N)c2nc(CNc3ccc(CC(=O)N[C@@H](CC(=O)O)C(=O)O)cc3)cnc2n1,1000,> 100,38,–,ILS at 200 mg/kg (L1210 [11]): 29%
CN(CCCCC(=O)N[C@@H](CCC(=O)O)C(=O)O)Cc1cnc2nc(N)nc(N)c2n1,20000,> 100,770,–,–
Nc1nc(N)c2nc(CNc3ccc(S(=O)(=O)N[C@@H](CCC(=O)O)C(=O)O)cc3)cnc2n1,1100,45,39,11000,ILS at 100 mg/kg (L1210 [9]): 27%
CCN(Cc1cnc2nc(N)nc(N)c2n1)c1c(Cl)cc(C(=O)N[C@@H](CCC(=O)O)C(=O)O)cc1Cl,50,0.022,1.1,5.5,ILS at 100 mg/kg (L1210 [9]): 70%
CCN(Cc1cnc2nc(N)nc(N)c2n1)c1ccc(C(=O)N[C@@H](CCC(=O)O)C(=O)O)cc1,45,0.005,1,1.3,ILS at 10 mg/kg (L1210 [12]): 117%
Nc1nc(N)c2nc(CNc3ccc(C(=O)NC(CCCCC(=O)O)C(=O)O)cc3)cnc2n1 (stereo unspecified),13,0.025,0.5,6.3,ILS at 20 mg/kg (L1210 [13]): 57%
Nc1nc(N)c2nc(CN(c3ccccc3)c3ccc(C(=O)N[C@@H](CCC(=O)O)C(=O)O)cc3)cnc2n1,280,26,11,6500,–
CN(Cc1ccc(C(=O)N[C@@H](CCC(=O)O)C(=O)O)cc1)Cc1cnc2nc(N)nc(N)c2n1,750,0.043,29,11,ILS at 50 mg/kg (L1210 [14]): 36%
Nc1nc(N)c2nc(CNc3ccc(CC(=O)N[C@@H](CCC(=O)O)C(=O)O)cc3)cnc2n1,380,41,15,10000,ILS at 500 mg/kg (L1210 [6]): 35%
CN(Cc1cnc2nc(N)nc(N)c2n1)c1ccc(C(=O)N[C@@H](CCC(=O)O)C(=O)O)cc1 [METHOTREXATE],26,0.004,–,–,ILS at 1.5 mg/kg (L1210 [15]): 72%
Nc1nc(N)c2nc(CNc3ccc(C(=O)NCCCC(=O)O)cc3)cnc2n1,380,> 100,15,–,ILS at 25 mg/kg (L1210 [16]): 1%
Nc1nc(N)c2nc(CNc3ccc(C(=O)N[C@@H](CCC(=O)O)C(=O)O)cc3)cnc2n1 [AMINOPTERIN],26,0.003,1,0.75,ILS at 0.67 mg/kg (L1210 [17]): 74%
